Results on one compound are retold here after publication PMC4389443 (Respiratory Research, 2015).

As a reminder, the clearance is the volume of plasma or blood freed of the substance per unit of time. For orientation: bioavailability means dose-corrected exposure relative to a reference, in per cent. Low readings indicate poor availability, high ones good availability.

Where two headings read alike, the source gives them in different places.

Data set [1] can be described thus: Pharmacokinetics in Wistar rats. Format: in vivo. As to conditions: rat; for Cmax: read-out: Apparent concentration at curve maximum Cmax. Here is the method: Studies were performed by ICP Firefly, Pharmalegacy and Sundia with local ethics approval. […] Plasma was analyzed for PXS-4728A by high-performance liquid chromatography-mass spectrometry/mass spectrometry. Basic pharmacokinetic parameters were estimated using PK Solutions software (Summit Research Services).

In another data set the test system is BALB/c mice. Put plainly: House dust mite/Rhinovirus exacerbated asthma model. Format: in vivo, mouse. As to conditions: 24 hours post RV1b infection. The method, then: Study performed at the University of Newcastle under local ethics committee. BALB/c mice were sensitized and challenged intranasally to 50 μg of crude HDM extract (Dermatophagoides pteronyssinus extract was obtained from Greer Laboratories) on days 0, 1 and 2 followed by four exposures of 5 μg HDM daily from day 14 to day 17 delivered in 50 μl of sterile saline. Animals were then infected on day 18 with infective Human Rhinovirus 1b RV1B41 (2.5 × 10^6 median tissue culture infective dose) intranasally. Mice were intranasally administered 50 μl infective or ultraviolet light (UV)–inactivated RV1B41. Mice were euthanized 24 hours after the rhinovirus challenge. BAL analysis was performed for total and differential counts and airway hyperreactivity (AHR) was assessed invasively by measurement of total lung resistance and dynamic compliance (BUXCO) in response to methacholine challenge as previously described. […]. Dose of azithromycin was chosen based on previously described findings, in respiratory viral infection models.

Regarding `CC(C)(C)NC(=O)c1ccc(OC/C(=C/F)CN)cc1` [PXS-4728A], the Cmax in data set [1] (Wistar, plasma, intravenous 3 mg.kg^−1) was determined as 4210 ng/mL; in data set [1] (Wistar, plasma, oral 6 mg.kg^−1) it was 720 ng/mL. In data set [1] (Wistar, plasma, intravenous 3 mg.kg^−1, read-out: Clearance CL), the clearance is 23 mL/min/kg. Besides, the Tmax in data set [1] (Wistar, plasma, oral 6 mg.kg^−1, read-out: Time of maximal concentration Tmax) was found to be 49.8 min. For the same compound, the half-life in data set [1] (Wistar, plasma, iv, 3 mg/kg, intravenous 3 mg.kg^−1, read-out: Apparent half-life, t1/2 (converted)) is ~60 min. In addition, in data set [1] (Wistar, plasma, oral, 6 mg.kg^−1, rat, oral 6 mg.kg^−1 / i.v. 3 mg.kg^−1), the bioavailability is > 55%. Also, the “Clearance CL” value in data set [1] (oral 6 mg.kg^−1) is 45 mL·kg/min. In addition, in data set [1] (oral 6 mg.kg^−1 / i.v. 3 mg.kg^−1), the “Bioavailability (%)” value amounted to 55%. Besides, the “Airways hyperreactivity to methacholine challenge” value in the data set with BALB/c mice (PXS-4728A 2, azithromycin 25 mg.kg^−1 ip.) was “significantly reduced”. Also, the “Total BALF neutrophils” value in the data set on BALB/c mice (PXS-4728A 2, dexamethasone 2, azithromycin 25 mg.kg^−1 ip.) is listed as “reduced”.
